Reference: US9650423B2, “Long peptides of 22-45 amino acid residues that induce and/or enhance antigen specific immune responses” (priority 2000, dated 2017)
“And” between values parts separate entries of the source, which are not always exact repeats. Equal values may be shown once. Residues, ends and D or L forms follow the SMILES beside them. No end group written: not given here.

Assays:
HLA-DR7 (DRB1*0701) = HLA-DR7 (DRB1*0701) (Homo sapiens, UniProt P01903+P01911, A100R/A102G/A103Q/D57E/D86V/E43K/F76Y/K127E/L162R/M171V/P40G/Q125H/Q99D/R33Q/R42Y/R54Q/S133A/S66F/T210M/V115G/Y107V/Y59L/Y89S); settings: read-out: Binding DR7, IC50
HLA-DR2 (DRB1*0201) = assay: HLA-DR-peptide binding assay; set-up: species or system human; settings: HPV16-E7 22-mer peptides; >70 indicates undetectable binding; read-out: Binding DR2, IC50
HLA-DR1 (DRB*0101) = target: T1, HLA-DR1 (DRB*0101) (Homo sapiens, UniProt P01903+P01911, A100R/D57E/F55L/F60I/F76Y/I96L/L162R/M171V/P40L/Q125E/R42F/V115G/Y59C); assay: biochemical; format: binding; settings: read-out: Binding DR1, IC50
T1 construct: endogenous in cells; host or cells: LG2.1 B-lymphoblastic cell line, homozygous for HLA-DR

HLA-DR 1, 2, 3, 4 and 7 = assay: HLA-DR-peptide binding assay, summary over the molecules tested; set-up: species or system human; settings: E7 peptides tested on HLA-DR 1, 2, 3, 4 and 7
Method: The analysis of peptide binding to purified DR molecules was performed using N-terminally fluorescence-labelled standard peptides.

HLA-DR4 (DRB*0401) = assay: HLA-DR-peptide binding assay; set-up: species or system human; settings: HPV16-E7 22-mer peptides; >70 indicates undetectable binding; read-out: Binding DR4, IC50
[1] = system: HPV16 E7-specific T-helper clones; assay: HPV16 E7-specific Th-clones: proliferation and IFNγ production; format: cell-based, human; settings: Th-clone from HLA-DR15, 4 and DQ6,7 positive PBMC raised against peptide E741-62
Method: Peptide-specific T-cell bulk cultures were generated as described previously (van der Burg et al., 1999) using either the E7 22-mer or E7 35-mer peptides. Specific proliferation was measured by incubation of 50,000 responders with an equal amount of irradiated (30Gy) APC (autologous PBMC unless indicated otherwise) and peptide or protein as indicated. E7-peptide and -protein-specific bulk T-cells were cloned by limiting dilution as described previously (van der Burg et al., 1999).
To determine specific excretion of cytokines, T-cell clones were stimulated by incubation of 50.000 T-cells with an equal amount of APC (30Gy) together with 10 μg/ml peptide, control peptide, E7 protein or control protein as indicated. After 24 hours of incubation, supernatant was harvested and replicate wells were pooled. Cytokine production was measured by Enzyme-Linked Immunosorbent Assay (ELISA) as described previously (van der Burg et al., 1999).

HLA-DR3 (DRB*0301) = assay: HLA-DR-peptide binding assay; set-up: species or system human; settings: HPV16-E7 22-mer peptides; >70 indicates undetectable binding; read-out: Binding DR3, IC50
[2] = system: PBMC of HLA-DR1 positive blood donors; assay: Proliferation of PBMC stimulated with long E6 peptides; format: cell-based, human; settings: two HLA-DR1 positive donors, stimulated with pool of two 35-mer peptides covering E6 109-158
Method: Furthermore, PBMC of two different HLA-DR1 positive blood donors were stimulated with a pool of two long 35-mer peptides that together covered E6 109-158. […] A CD4+ T-helper clone derived from one of these bulks was analysed further and specifically proliferated and produced IFNγ when stimulated with HPV16 E6 peptide and HPV16 E6 protein in a HLA-DR1 restricted manner (FIG. 16).
FIGS. 16a-16d depict a peptide E6127-158 induced T-cell response that recognizes naturally processed Ag. PBMC from a healthy HLA-DR1 positive blood donor were stimulated four times with peptide E6127-158. FIGS. 16a and 16b are entitled E6 127-158 stimulated HLA-DR1+PBMC. Proliferation of the bulk T-cell culture (top, left, 16a) and IFNγ production (top, right, 16b) is depicted. FIGS. 16c and 16d are entitled E6 127-158 stimulated PBMC derived clone 9 HLA-DR restriction in proliferation and IFNγ production. The specific proliferation (bottom, left, 16c) and IFNγ production (bottom, right, 16d) of the T-helper clone, derived from the bulk T-cell culture, and HLA-restriction when stimulated with E6127-158, or E6 protein is depicted. (See, also, FIGS. 1a-1d and associated descriptions).

[3] = system: E7 49-57-specific CD8+ T cells; assay: Vaccination, H-2Db E7 49-57 tetramer staining of spleen cultures; format: in vivo, C57BL/6 mice; settings: B6 mice
Method: (§1) Immunization strategies. C57BL/6 mice were injected subcutaneously with either 50 μg E7^49-57 peptide or 150 μg E7^43-77 35-mer dissolved in PBS in order to achieve similar molar levels of the E7^49-57 CTL epitope in both cases. Combinations with various adjuvantia were tested. In the case of IFA and Montanide, the dissolved peptides were emulsified in 50% of these respective substances. ODN-CpG (50 μg/mouse), MPL (10 μg/mouse) and GM-CSF (4 μg/mouse) were all dissolved in PBS and mixed with the peptides before subcutaneous vaccination. The total injected volume was 200 μl/mouse.
T cell cultures. T cells were obtained from immunized mice by culturing spleen cells (5×10^6 cells/well of a 24-wells plate) in complete medium in the presence of 0.5×10^6 E7^49-57-expressing cells (tumor cell line 13.2) or, when indicated, in the presence of D1 cells.
Tetramer staining. Spleen cultures, stimulated with tumor cell line 13.2 for seven days, were transferred at an amount of 40×10^4 per well to 96-well V-bottom microtiter plates and washed twice with PBS/BSA 0.5%. Subsequently, PE-labelled E749-57-containing tetramer was added. After 30 minutes of incubation at room temperature, cells were washed twice with PBS/BSA 0.5% and incubated with FITC-labelled anti CD8b Ab for 30 minutes. Subsequently cells were washed twice in PBS/BSA 0.5%, suspended in PBS/BSA 0.5% containing Propidium Iodide (PI) (0.5) μg/ml) and transferred to tubes. Cell samples were analysed in a FACSCalibur flow cytometer (Becton Dickinson, San Jose, Calif., USA) using CellQuest software. A total of 20×10^4 events was analysed for fluorescence intensity. Debris was gated out using the PI staining and subsequently the CD8^+ fraction was gated. […] As a positive control the HPV16 E7 specific CTL clone 9.5 was used.

[4] = system: E7 43-77-specific IFNγ-producing CD4+ T cells; assay: Vaccination, intracellular IFN-γ staining of CD4+ T cells; format: in vivo, C57BL/6 mice; settings: B6 mice, vaccinated once, IFA
Method: as §1
Before use, the D1 cells were incubated for 16 hours with the E7^43-77 35-mer and subsequently activated by adding LPS (10 μg/ml) for 6 hours and then thoroughly washed. Complete medium consists of Iscove's Modified Dulbecco's Medium (IMDM; BioWhittaker, Walkersville, Md., USA) supplemented with 8% FCS, 100 IU/ml penicillin, 2 mM glutamine (ICN, Aurora, Ohio, USA) and 30 μM 2-ME (Merck, Darmstadt, Germany). Cultures were maintained at 37° C. in humidified air containing 5% CO2. No exogenous IL-2 was added. […]
Intracellular cytokine staining. […] Subsequently, the percentage of CD8^+ and CD4^+ IFN-γ producing T cells was measured as described before (van der Burg et al., 2001).

[5] = system: E7 49-57-specific CD8+ T cells; assay: Vaccination, H-2Db E7 49-57 tetramer staining of spleen cultures; format: in vivo, C57BL/6 mice; settings: MHC class II−/− mice
Ad5E1-expressing tumors = settings: Toes et al., 1996a, 1996b; cited from earlier work
[6] = system: PBMC or cord blood cells (CBC); format: cell-based, human

CC[C@H](C)[C@H](NC(=O)[C@H](CC(N)=O)NC(=O)[C@H](Cc1ccc(O)cc1)NC(=O)[C@H](Cc1c[nH]cn1)NC(=O)[C@H](C)NC(=O)[C@H](CCCNC(=N)N)NC(=O)[C@H](CC(=O)O)NC(=O)[C@@H]1CCCN1C(=O)[C@H](CCC(=O)O)NC(=O)[C@H](C)NC(=O)[C@H](CCC(N)=O)NC(=O)CNC(=O)[C@H](C)NC(=O)[C@@H]1CCCN1)C(=O)N[C@H](C(=O)N[C@H](C(=O)N[C@@H](Cc1ccccc1)C(=O)N[C@@H](CS)C(=O)N[C@@H](CS)C(=O)N[C@@H](CCCCN)C(=O)N[C@@H](CS)C(=O)N[C@@H](CC(=O)O)C(=O)O)[C@@H](C)O)C(C)C [E7 41-62] (H-PAGQAEPDRAHYNIVTFCCKCD-OH; N-terminus and C-terminus assumed) showed an IC50 (HLA-DR7 (DRB1*0701)) greater than 70 µM, an IC50 (HLA-DR2 (DRB1*0201)) of 50 µM and an IC50 (HLA-DR1 (DRB*0101)) of 7.4 µM. The HLA-DR molecules bound (HLA-DR 1, 2, 3, 4 and 7) was “bound to DR1, 2, 3 and 4”, the IC50 (HLA-DR4 (DRB*0401)) was 38 µM and the “response of HLA-DR15 restricted Th-clone to pulsed APC” value [1] was “specifically respond”. For the same molecule, the IC50 (HLA-DR3 (DRB*0301)) was 55 µM.
For “E6 121-142: 22-mer peptide, amino acids 121-142 of HPV16 E6 protein (EKQRHLDKKQRFHNIRGRWTGR; UniProt P03126 121-142, looked up, fragment)”, the “specific proliferation of PBMC” value [2] was “proliferated specifically”.
With “E6 127-158: peptide, amino acids 127-158 of HPV16 E6 protein (DKKQRFHNIRGRWTGRCMSCCRSSRTRRETQL)” the “specific proliferation of PBMC” value [2] was “proliferated specifically”.
In the case of “E6 protein: recombinant HPV16-E6 protein produced in E. coli (DKKQRFHNIRGRWTGRCMSCCRSSRTRRETQL) [reference compound]”, the “specific proliferation of PBMC” value [2] is reported as “proliferated specifically”.
For “GQAEPDRAHYNIVTFCCKCDSTLRLCVQSTHVDIR [E7 43-77]”, the “E7 49-57-specific CD8+ T cell response” value ([3]; prime-boost, IFA) was “vigorous”, the “mice with E7 49-57-specific CTL response” value ([3]; primed and boosted 50 days later, IFA) was 9/11 and the “E7 49-57-specific CD8+ T cells, mean” value ([3]; primed and boosted, IFA) was 19%. The “E7 49-57-specific CD8+ T cells, range” value ([3]; primed and boosted, IFA) was 5-40%, the “E7 49-57-specific CTL response” value ([3]; vaccinated once, GM-CSF and IFA) was “moderate” and the “CD8+ T cells stained with tetramers” value ([3]; vaccinated once, IFA, responders) was roughly 5%. The “mice responding to the vaccine (tetramer staining)” value ([3]; vaccinated once, IFA, spleens day 10) was 3 out of 9, the “mice with E7 49-57-specific CTL responses” value ([3]; vaccinated once, MPL or ODN-CpG) was “in all mice” and the “level of the CTL response” value ([3]; vaccinated once, MPL or ODN-CpG, majority of animals) was “up to 40 % of CD8+ T cells”. The “E7 49-57-specific CTL response” value ([3]; vaccinated once, Montanide adjuvant) was “no responses were observed”, the “E7 49-57-specific CTL response” value ([3]; vaccinated once, combined with anti-CD40 antibody or GM-CSF) was “no or minimal CTL responses” and the “E7 43-77-specific IFNγ-producing CD4+ T cells” value [4] was no less than 5%. For the same molecule, the CTL responses ([5]; one vaccination, ODN-CpG) was “robust CTL responses”, the “number of E7 49-57-specific CTL” value ([5]; prime-boost, IFA) was “far lower than found in B6 mice after two vaccinations” and the “response of HLA-DR15 restricted Th-clone to pulsed APC” value [1] was “specifically respond”.
For “SGPSNTPPEI (minimal E1A-derived CTL epitope)”, the “effect of peptide vaccination on outgrowth of Ad5E1-expressing tumors” value (Ad5E1-expressing tumors) is listed as “enhances rather than inhibits the growth”.
Work on STHVDIRTLEDLLMGTLGIVCP [E7 71-92] yielded an IC50 (HLA-DR7 (DRB1*0701)) greater than 70 µM, an IC50 (HLA-DR2 (DRB1*0201)) of 2 µM and an IC50 (HLA-DR1 (DRB*0101)) of 12 µM. For the same molecule, the IC50 (HLA-DR4 (DRB*0401)) was greater than 70 µM, the “number of antigen-specific cells (IFNγ ELISPOT)” value [6] was 2 per 100,000 cord blood cells or PBMC and <1 per 100,000 cord blood cells or PBMC and the IC50 (HLA-DR3 (DRB*0301)) was greater than 70 µM.
